In ChEMBL document CHEMBL2176988 (J Med Chem, 2012):

Columns and labels:
[1] = molecular target: T1, Neuronal acetylcholine receptor; alpha3/beta4 (Homo sapiens, UniProt P30926+P32297); test: Agonist activity at human alpha3beta4 nAChR expressed in CHO cells assessed as calcium flux by calcium4-based FLIPR assay relative to nicotine; assay type: functional, cell-based
[2] = molecular target: T1, Neuronal acetylcholine receptor; alpha3/beta4; test: Agonist activity at human alpha3beta4 nAChR expressed in CHO cells assessed as calcium flux by calcium4-based FLIPR assay; assay type: functional, cell-based
[3] = molecular target: T2, Neuronal acetylcholine receptor; alpha4/beta2 (Homo sapiens, UniProt P17787+P43681); test: Agonist activity at alpha4beta2 nAChR in human SH-EP1 cells assessed as calcium flux by calcium4-based FLIPR assay relative to nicotine; assay type: functional, cell-based
[4] = molecular target: T2, Neuronal acetylcholine receptor; alpha4/beta2; test: Agonist activity at alpha4beta2 nAChR in human SH-EP1 cells assessed as calcium flux by calcium4-based FLIPR assay; assay type: functional, cell-based
[5] = molecular target: Neuronal acetylcholine receptor subunit alpha-7 (Homo sapiens, UniProt P36544); test: Displacement of [3H]epibatidine from human alpha7 nAChR expressed in CHO cells after 2 hrs by liquid scintillation counting; assay type: cell-based
[6] = molecular target: T1, Neuronal acetylcholine receptor; alpha3/beta4; test: Displacement of [3H]epibatidine from human alpha3beta4 nAChR expressed in CHO cells after 2 hrs by liquid scintillation counting; assay type: cell-based
[7] = molecular target: Neuronal acetylcholine receptor; alpha4/beta2 (Rattus norvegicus, UniProt P09483+P12390); test: Displacement of [3H]epibatidine from alpha4beta2 nAChR in Sprague-Dawley rat cortex after 2 hrs by liquid scintillation counting
[8] = molecular target: T2, Neuronal acetylcholine receptor; alpha4/beta2; test: Displacement of [3H]nicotine from alpha4beta2 nAChR in human SH-EP1 cells after 2 hrs by liquid scintillation assay; assay type: cell-based

Sequence of Neuronal acetylcholine receptor subunit alpha-7 (P36544 whole entry): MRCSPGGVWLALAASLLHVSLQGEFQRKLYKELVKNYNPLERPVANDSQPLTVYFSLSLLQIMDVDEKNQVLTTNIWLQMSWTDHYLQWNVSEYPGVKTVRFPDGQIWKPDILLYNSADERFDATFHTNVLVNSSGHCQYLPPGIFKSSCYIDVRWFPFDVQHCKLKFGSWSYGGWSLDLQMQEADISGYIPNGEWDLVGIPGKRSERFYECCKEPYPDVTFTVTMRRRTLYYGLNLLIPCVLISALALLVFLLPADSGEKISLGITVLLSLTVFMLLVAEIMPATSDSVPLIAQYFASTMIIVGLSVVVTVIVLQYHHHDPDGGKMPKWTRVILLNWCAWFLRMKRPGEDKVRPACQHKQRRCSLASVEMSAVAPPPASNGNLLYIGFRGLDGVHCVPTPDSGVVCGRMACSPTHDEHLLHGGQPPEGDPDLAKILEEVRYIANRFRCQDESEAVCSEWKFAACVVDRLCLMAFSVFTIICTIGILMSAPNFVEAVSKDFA
T1 sequence (P30926 whole entry): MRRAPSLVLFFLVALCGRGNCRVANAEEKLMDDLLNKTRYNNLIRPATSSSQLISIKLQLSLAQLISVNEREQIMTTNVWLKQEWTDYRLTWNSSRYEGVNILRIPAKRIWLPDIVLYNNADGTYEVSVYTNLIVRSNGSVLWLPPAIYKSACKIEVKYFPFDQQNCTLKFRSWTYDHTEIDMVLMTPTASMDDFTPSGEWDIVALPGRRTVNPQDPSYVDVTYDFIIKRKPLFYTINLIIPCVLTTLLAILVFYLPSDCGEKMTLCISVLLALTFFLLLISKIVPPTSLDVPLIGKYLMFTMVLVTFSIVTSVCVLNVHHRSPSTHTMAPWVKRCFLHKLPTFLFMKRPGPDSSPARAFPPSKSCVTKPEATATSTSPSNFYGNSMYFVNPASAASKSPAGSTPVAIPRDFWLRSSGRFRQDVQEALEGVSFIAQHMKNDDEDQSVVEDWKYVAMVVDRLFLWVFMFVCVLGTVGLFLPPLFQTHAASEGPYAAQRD
T1 sequence (P32297 whole entry): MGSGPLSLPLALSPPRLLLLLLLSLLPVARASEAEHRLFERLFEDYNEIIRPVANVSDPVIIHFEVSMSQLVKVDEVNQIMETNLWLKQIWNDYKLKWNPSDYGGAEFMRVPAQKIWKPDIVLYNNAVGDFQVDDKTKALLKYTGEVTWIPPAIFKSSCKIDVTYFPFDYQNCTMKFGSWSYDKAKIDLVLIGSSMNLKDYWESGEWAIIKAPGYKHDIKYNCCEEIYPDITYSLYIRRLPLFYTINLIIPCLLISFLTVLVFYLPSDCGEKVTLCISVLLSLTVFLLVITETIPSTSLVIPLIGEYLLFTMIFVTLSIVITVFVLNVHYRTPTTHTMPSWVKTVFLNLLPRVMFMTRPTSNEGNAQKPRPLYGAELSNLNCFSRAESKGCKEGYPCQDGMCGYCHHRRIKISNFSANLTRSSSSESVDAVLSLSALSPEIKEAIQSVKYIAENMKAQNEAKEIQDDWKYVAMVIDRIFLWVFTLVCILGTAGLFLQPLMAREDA
Sequence of Neuronal acetylcholine receptor; alpha4/beta2 (Rattus norvegicus, UniProt P09483+P12390) (P09483 whole entry): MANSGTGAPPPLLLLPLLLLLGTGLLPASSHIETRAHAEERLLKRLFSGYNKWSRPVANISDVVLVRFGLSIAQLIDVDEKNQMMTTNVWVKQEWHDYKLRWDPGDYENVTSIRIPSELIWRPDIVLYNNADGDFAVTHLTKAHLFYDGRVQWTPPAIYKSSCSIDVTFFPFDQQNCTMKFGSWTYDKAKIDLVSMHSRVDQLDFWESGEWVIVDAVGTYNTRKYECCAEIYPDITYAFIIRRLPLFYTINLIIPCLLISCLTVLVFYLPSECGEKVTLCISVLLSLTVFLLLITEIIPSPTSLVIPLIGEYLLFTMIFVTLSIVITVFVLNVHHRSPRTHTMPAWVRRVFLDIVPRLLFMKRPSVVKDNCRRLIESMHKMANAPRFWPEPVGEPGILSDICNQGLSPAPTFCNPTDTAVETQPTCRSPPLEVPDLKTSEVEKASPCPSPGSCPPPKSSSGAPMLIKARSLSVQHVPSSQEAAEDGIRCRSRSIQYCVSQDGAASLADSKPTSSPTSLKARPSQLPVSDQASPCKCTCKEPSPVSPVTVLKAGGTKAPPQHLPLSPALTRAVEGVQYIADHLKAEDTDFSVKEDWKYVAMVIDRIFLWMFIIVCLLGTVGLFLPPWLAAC
Sequence of Neuronal acetylcholine receptor; alpha4/beta2 (Rattus norvegicus, UniProt P09483+P12390) (P12390 whole entry): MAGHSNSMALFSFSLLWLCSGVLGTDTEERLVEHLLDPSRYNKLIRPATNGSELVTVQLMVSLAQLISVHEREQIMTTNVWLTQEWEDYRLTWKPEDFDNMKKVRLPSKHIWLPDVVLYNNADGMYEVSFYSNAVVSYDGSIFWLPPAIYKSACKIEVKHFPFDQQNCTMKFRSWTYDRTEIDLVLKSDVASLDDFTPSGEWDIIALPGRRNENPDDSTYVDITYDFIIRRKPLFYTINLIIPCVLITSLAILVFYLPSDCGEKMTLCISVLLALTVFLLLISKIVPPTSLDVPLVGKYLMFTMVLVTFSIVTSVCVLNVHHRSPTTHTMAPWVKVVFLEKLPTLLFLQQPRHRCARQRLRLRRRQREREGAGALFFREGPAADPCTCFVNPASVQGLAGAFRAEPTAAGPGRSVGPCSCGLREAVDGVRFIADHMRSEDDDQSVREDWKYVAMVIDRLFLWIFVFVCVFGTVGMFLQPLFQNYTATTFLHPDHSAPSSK
T2 sequence (P17787 whole entry): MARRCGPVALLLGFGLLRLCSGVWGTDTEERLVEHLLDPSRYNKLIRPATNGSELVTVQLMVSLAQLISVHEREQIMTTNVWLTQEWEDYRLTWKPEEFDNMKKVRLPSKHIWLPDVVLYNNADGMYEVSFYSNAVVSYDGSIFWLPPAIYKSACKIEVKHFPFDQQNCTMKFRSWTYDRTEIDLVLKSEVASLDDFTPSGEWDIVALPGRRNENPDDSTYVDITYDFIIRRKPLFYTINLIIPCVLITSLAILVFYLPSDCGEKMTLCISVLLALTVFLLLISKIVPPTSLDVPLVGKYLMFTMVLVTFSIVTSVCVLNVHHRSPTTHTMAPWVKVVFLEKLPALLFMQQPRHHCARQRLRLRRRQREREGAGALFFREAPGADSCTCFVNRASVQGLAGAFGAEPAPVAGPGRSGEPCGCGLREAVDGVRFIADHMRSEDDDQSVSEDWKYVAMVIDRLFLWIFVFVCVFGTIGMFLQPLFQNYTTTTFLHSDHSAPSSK
T2 sequence (P43681 whole entry): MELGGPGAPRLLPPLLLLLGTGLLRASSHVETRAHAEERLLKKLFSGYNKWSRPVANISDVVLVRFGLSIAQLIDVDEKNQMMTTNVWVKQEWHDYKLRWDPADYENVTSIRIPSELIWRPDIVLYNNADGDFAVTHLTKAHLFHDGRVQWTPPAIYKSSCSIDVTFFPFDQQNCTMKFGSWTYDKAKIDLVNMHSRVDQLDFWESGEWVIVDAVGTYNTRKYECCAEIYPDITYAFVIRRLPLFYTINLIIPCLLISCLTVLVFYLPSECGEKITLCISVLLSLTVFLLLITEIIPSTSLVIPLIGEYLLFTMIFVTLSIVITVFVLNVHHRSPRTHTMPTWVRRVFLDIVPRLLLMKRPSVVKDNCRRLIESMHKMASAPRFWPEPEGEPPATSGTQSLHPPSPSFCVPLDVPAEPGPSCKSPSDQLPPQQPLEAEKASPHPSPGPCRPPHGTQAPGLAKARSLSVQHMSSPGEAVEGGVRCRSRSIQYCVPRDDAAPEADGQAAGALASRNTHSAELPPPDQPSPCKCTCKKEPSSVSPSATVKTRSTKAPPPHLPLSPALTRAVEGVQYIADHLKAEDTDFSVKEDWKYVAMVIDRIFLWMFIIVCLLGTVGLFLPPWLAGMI

Row | Structure (SMILES) | Emax [1] | EC50 [2] | Emax [3] | EC50 [4] | Ki [5] | Ki [6] | Ki [7] | Ki [8]
1 | O=C(c1ccc(Br)o1)N1CC2CNCC2C1 (stereo not drawn) | 25% | 29 µM | 40% | 22 µM | > 10 µM | 7.2 µM | 0.24 µM | 0.074 µM
2 | O=C(c1ccco1)N1CC2CNC(C2)C1 (stereo not drawn) | 34% | 6.9 µM | 65% | 2.6 µM | 7.8 µM | 1.7 µM |  | 
3 | O=C(c1ncco1)N1CC2CNCC2C1 (stereo not drawn) | 5% | 79 µM | 65% | 31 µM | 14 µM | 100 µM | 0.47 µM | 0.34 µM
4 | O=C(c1cc(F)co1)N1CC2CNCC2C1 (stereo not drawn) | 17% | 36 µM | 130% | 1.4 µM | > 10 µM | 8.3 µM |  | 0.032 µM
5 | O=C(C1CC1)N1CC2CNCC2C1 (stereo not drawn) | 130% | 4.9 µM | 110% | 0.47 µM | 0.84 µM | 0.67 µM | 0.007 µM | 0.004 µM
6 | O=C(c1ccc(Cl)o1)N1C[C@H]2CN[C@@H](C2)C1 | 100% | 14 µM | 92% | 3 µM | 14 µM | 5.2 µM | 0.12 µM | 0.016 µM
7 | O=C(c1cc(Br)co1)N1CC2CNCC2C1 (stereo not drawn) | 45% | 36 µM | 15% | 6.5 µM | 4.6 µM | 7.7 µM | 0.091 µM | 0.016 µM
8 | O=C(c1cccnc1)N1CC2CNCC2C1 (stereo not drawn) | 55% | 29 µM | 58% | 30 µM | 20 µM | 4.4 µM | 0.16 µM | 0.49 µM
9 | O=C(c1ccco1)N1C[C@@H]2CN[C@H](C2)C1 | 130% | 15 µM | 36% | 7.4 µM | 5.5 µM | 0.45 µM | 0.011 µM | 0.013 µM
10 | O=C(c1ccco1)N1C[C@H]2CN[C@@H](C2)C1 | 120% | 17 µM | 83% | 4.7 µM | 0.56 µM | 1.7 µM | 0.097 µM | 0.015 µM
11 | O=C(c1cc(Cl)co1)N1CC2CNCC2C1 (stereo not drawn) | 53% | 56 µM | 39% | 11 µM | > 10 µM | 7.1 µM | 0.065 µM | 0.011 µM
12 | N#Cc1ccoc1C(=O)N1CC2CNCC2C1 (stereo not drawn) | 96% | 22 µM | 76% | 100 µM | 8.8 µM | 3.2 µM | 0.068 µM | 0.013 µM
13 | O=C(c1occc1F)N1CC2CNCC2C1 (stereo not drawn) | 35% | 44 µM | 96% | 4.8 µM | > 10 µM | 6.5 µM | 0.054 µM | 0.023 µM
14 | O=C(c1occc1Cl)N1CC2CNCC2C1 (stereo not drawn) | 110% | 22 µM | 79% | 17 µM | 2.6 µM | 2.4 µM | 0.012 µM | 0.002 µM
15 | O=C(c1ccc(F)o1)N1C[C@H]2CN[C@@H](C2)C1 | 120% | 4 µM | 120% | 1.7 µM | 1.6 µM | 0.6 µM | 0.12 µM | 0.012 µM
16 | O=C(C1CC1)N1C[C@@H]2CN[C@H](C2)C1 | 180% | 1.8 µM | 130% | 0.45 µM | 0.21 µM | 0.2 µM | 0.022 µM | 0.001 µM
17 | O=C(c1ccno1)N1CC2CNCC2C1 (stereo not drawn) | 17% | 66 µM | 150% | 6.8 µM | 19 µM | 7.1 µM | 0.047 µM | 0.049 µM
18 | O=C(c1ccco1)N1CC2CNCC(C2)C1 | 57% | 43 µM | 65% | 1.9 µM | 8.2 µM | 8.1 µM | 0.029 µM | 0.02 µM
19 | Cc1ccoc1C(=O)N1CC2CNCC2C1 (stereo not drawn) | 40% | 23 µM | 64% | 14 µM | 3.7 µM | 2.2 µM | 0.022 µM | 0.032 µM
20 | O=C(c1ccncc1)N1CC2CNCC2C1 (stereo not drawn) | 33% | 32 µM | 56% | 21 µM | 15 µM | 5.4 µM | 0.02 µM | 0.067 µM

Row | Structure (SMILES) | Emax [1] | EC50 [2] | Emax [3] | EC50 [4] | Ki [5] | Ki [6] | Ki [7] | Ki [8]
21 | O=C(c1ccncc1)N1CC2CNCC(C2)C1 | 6% | 54 µM | 7% | 19 µM | > 10 µM | > 10 µM | 0.057 µM | 0.037 µM
22 | Cc1ccc(C(=O)N2CC3CNCC3C2)o1 (stereo not drawn) | 7% | 57 µM | 44% | 22 µM | 8.2 µM | > 10 µM | 0.23 µM | 0.042 µM
23 | O=C(c1occc1Br)N1CC2CNCC2C1 (stereo not drawn) | 83% | 27 µM | 90% | 4.2 µM | 6.3 µM | 3.8 µM | 0.008 µM | 0.002 µM
24 | O=C(c1cnco1)N1CC2CNCC2C1 (stereo not drawn) | 11% | 35 µM | 110% | 4.2 µM | 7.6 µM | 11 µM | 0.13 µM | 0.11 µM
25 | O=C(c1ccccc1)N1CC2CNCC2C1 (stereo not drawn) | 18% | 28 µM | 9% | 36 µM | 20 µM | 15 µM | 0.0011 µM | 0.2 µM
26 | O=C(c1ccoc1)N1CC2CNCC2C1 (stereo not drawn) | 31% | 35 µM | 110% | 5.8 µM | 100 µM | 4.8 µM |  | 0.019 µM
27 | O=C(c1ccc(F)o1)N1CC2CNCC2C1 (stereo not drawn) | 55% | 31 µM | 140% | 5.8 µM | 1.2 µM | 12 µM | 0.051 µM | 0.008 µM
28 | O=C(C1CC1)N1CC2CNC(C2)C1 (stereo not drawn) | 150% | 4.2 µM | 100% | 1.7 µM | 0.35 µM | 0.42 µM | 0.001 µM | 0.004 µM
29 | O=C(c1ccc(F)o1)N1C[C@@H]2CN[C@H](C2)C1 | 110% | 6.9 µM | 110% | 2.1 µM | 14 µM | 0.9 µM | 0.017 µM | 0.005 µM
30 | O=C(c1ccncc1)N1CC2CNC(C2)C1 (stereo not drawn) | 110% | 9.2 µM | 8% | 42 µM | 1.3 µM | 1.5 µM | 0.025 µM | 
31 | O=C(c1ccccn1)N1CC2CNCC2C1 (stereo not drawn) | 3% | 51 µM | 44% | 34 µM | 100 µM | 21 µM | 0.34 µM | 0.25 µM
32 | O=C(c1ccco1)N1CC2CNCC2C1 (stereo not drawn) | 32% | 42 µM | 170% | 4.5 µM | 5.9 µM | 72 µM | 0.053 µM | 
33 | COc1ccc(C(=O)N2CC3CNCC3C2)cc1 (stereo not drawn) | 22% | 31 µM | 9% | 43 µM | 100 µM | 8.4 µM | 0.14 µM | 0.026 µM
34 | O=C(c1ccccc1)N1CC2CNCC(C2)C1 | 8% | 28 µM | 8% | 100 µM | 34 µM | 100 µM | 1.7 µM | 0.92 µM
35 | Cc1ncoc1C(=O)N1CC2CNCC2C1 (stereo not drawn) | 51% | 33 µM | 110% | 6.8 µM | 5.9 µM | 22 µM | 0.06 µM | 0.008 µM
36 | COc1ccc(C(=O)N2CC3CNCC(C3)C2)cc1 | 7% | 28 µM | 6% | 4.3 µM | 100 µM | 27 µM | 0.38 µM | 0.06 µM
37 | O=C(c1ccc(Br)o1)N1C[C@@H]2CN[C@H](C2)C1 | 61% | 16 µM | 27% | 12 µM | 8.2 µM | 1.5 µM | 0.057 µM | 0.009 µM
38 | N#Cc1coc(C(=O)N2CC3CNCC3C2)c1 (stereo not drawn) | 21% | 31 µM | 22% | 11 µM | 8.6 µM | 8.7 µM | 0.12 µM | 0.027 µM
39 | N#Cc1ccc(C(=O)N2CC3CNCC3C2)o1 (stereo not drawn) | 14% | 61 µM | 90% | 24 µM | > 10 µM | 4.8 µM |  | 0.053 µM
40 | O=C(C1CC1)N1CC2CNCC(C2)C1 | 160% | 1.2 µM | 46% | 0.85 µM | 0.02 µM | 0.11 µM | 0.002 µM | 0.001 µM
